The record followed here is PubChem BioAssay (NCI).

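Test compounds were applied to cells in 96-well plates for 48 hours at 5 doses. Here, GI50 denotes the concentration required for 50% inhibition of growth. The concentration for full growth arrest is given as TGI.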

Some test systems named below: K-562 leukemia; 786-0 renal; UACC-62 melanoma; IGROV1 ovarian; RPMI-8226 leukemia; NCI-H522 lung; HCT-116 colon; HOP-62 NSCLC; LOX IMVI melanoma.
What all share (test): growth of human tumour cells (NCI), 48 h

As to `CCOC(=O)c1cc(C(=O)O)c(=O)n2c1[nH]c1ccccc12`, the TGI with K-562 leukemia, in the assay with 786-0 renal, in the assay on UACC-62 melanoma, in the assay on IGROV1 ovarian, in the assay on RPMI-8226 leukemia and with NCI-H522 lung was above 100 µM in each case. Further, the TGI in the assay with HCT-116 colon and with HOP-62 NSCLC was above 100 µM each time.

In the case of `CC(C)(C)OC(=O)n1c(Cl)c(C(=O)N=C=S)c2ccccc21`, the GI50 with K-562 leukemia was 47 µM; in the assay on 786-0 renal, 80 µM; in the assay on UACC-62 melanoma, 28.8 µM; in the assay on IGROV1 ovarian, 9.65 µM; in the assay with RPMI-8226 leukemia, 24.4 µM; with LOX IMVI melanoma, 29.2 µM. In addition, the GI50 with NCI-H522 lung is 18.1 µM; in the assay with HCT-116 colon it was 55.7 µM; in the assay on HOP-62 NSCLC, above 100 µM. Besides, the TGI was above 100 µM in the assay with K-562 leukemia; above 100 µM in the assay with 786-0 renal; 79 µM in the assay with UACC-62 melanoma; 34.7 µM with IGROV1 ovarian; 87.4 µM in the assay on RPMI-8226 leukemia; above 100 µM in the assay on LOX IMVI melanoma. Also, the TGI was 37.6 µM in the assay on NCI-H522 lung, above 100 µM in the assay on HCT-116 colon and above 100 µM with HOP-62 NSCLC.

On to `CN1CCN(CCCOc2ccc3ncnc(Nc4ccc(Oc5cccc(F)c5)c(Cl)c4)c3c2)CC1`, for which the GI50 in the assay on K-562 leukemia is 1.19 µM; with 786-0 renal, 1.61 µM; in the assay with UACC-62 melanoma, 1.75 µM; in the assay on IGROV1 ovarian it was 0.711 µM; in the assay with RPMI-8226 leukemia it was 1.58 µM; with LOX IMVI melanoma it was 1.7 µM. Also, the GI50 in the assay with NCI-H522 lung is 1.23 µM; in the assay on HCT-116 colon, 1.51 µM; in the assay on HOP-62 NSCLC it was 1.75 µM. The TGI stood at 4.34 µM in the assay on K-562 leukemia; 3 µM in the assay on 786-0 renal; 3.27 µM in the assay on UACC-62 melanoma; 2.23 µM in the assay with IGROV1 ovarian; 4.86 µM with RPMI-8226 leukemia; 3.1 µM with LOX IMVI melanoma. The TGI is 3.14 µM with NCI-H522 lung, 2.86 µM in the assay with HCT-116 colon and 3.76 µM with HOP-62 NSCLC.

In the case of `COC(=O)Cc1cc(=O)oc2c1C(=O)CCC2`, the TGI with K-562 leukemia, with 786-0 renal, in the assay on UACC-62 melanoma, with IGROV1 ovarian, in the assay with RPMI-8226 leukemia and in the assay with LOX IMVI melanoma was above 100 µM in each case. For the same compound, the TGI in the assay on NCI-H522 lung, in the assay with HCT-116 colon and with HOP-62 NSCLC was above 100 µM throughout.

For the compound `c1cc2ccc1C1NCCCN1CCN1CCCNC1c1ccc(cc1)C1NCCCN1CCN1CCCNC21` (configuration not stated), the TGI in the assay with K-562 leukemia, with 786-0 renal, with UACC-62 melanoma, in the assay with IGROV1 ovarian, with RPMI-8226 leukemia and in the assay on LOX IMVI melanoma was above 100 µM each time. Also, the results for the TGI in the assay on NCI-H522 lung, in the assay with HCT-116 colon and in the assay with HOP-62 NSCLC were 97.9 µM, above 100 µM and above 100 µM, respectively.

`NCCn1c2c(c3ccccc3c1=O)C(=O)c1ccccc1-2`: the GI50 in the assay on K-562 leukemia is 0.231 µM; in the assay on 786-0 renal, 0.552 µM; with UACC-62 melanoma, 0.833 µM; in the assay on IGROV1 ovarian it was 0.592 µM; in the assay with RPMI-8226 leukemia, 0.338 µM; in the assay with LOX IMVI melanoma, 0.347 µM. Further, the GI50 in the assay with NCI-H522 lung is 1.24 µM; in the assay with HCT-116 colon, 0.234 µM; with HOP-62 NSCLC, 0.369 µM. Besides, the TGI in the assay with K-562 leukemia is 3.46 µM; in the assay with 786-0 renal it was 1.78 µM; in the assay on UACC-62 melanoma, 5.69 µM; with IGROV1 ovarian, above 45.8 µM; with RPMI-8226 leukemia, 1.5 µM; in the assay on LOX IMVI melanoma, 1.78 µM. Also, the TGI in the assay on NCI-H522 lung was above 21.7 µM; in the assay with HCT-116 colon, 1.56 µM; in the assay on HOP-62 NSCLC it was 1.1 µM.

Consider `Fc1ccc(-c2cc(-c3cn[nH]c3-c3ccccn3)ccn2)cc1`, for which the GI50 is above 25 µM in the assay with K-562 leukemia; above 22.6 µM in the assay on 786-0 renal; above 25 µM with UACC-62 melanoma; above 25 µM with IGROV1 ovarian; above 25 µM in the assay with RPMI-8226 leukemia; above 25 µM with LOX IMVI melanoma. Besides, the values for the GI50 in the assay on NCI-H522 lung, in the assay with HCT-116 colon and in the assay on HOP-62 NSCLC were above 25 µM, above 17.3 µM and above 25 µM, respectively. For the same compound, the TGI in the assay on K-562 leukemia, in the assay with 786-0 renal, in the assay with UACC-62 melanoma, in the assay with IGROV1 ovarian, in the assay on RPMI-8226 leukemia and with LOX IMVI melanoma was above 25 µM in each case. Also, the TGI in the assay on NCI-H522 lung, with HCT-116 colon and in the assay with HOP-62 NSCLC was above 25 µM throughout.

In the case of `Cc1ccc2c(C(C[N+](=O)[O-])c3ccco3)c(-c3ccccc3)[nH]c2c1` (configuration not stated), the GI50 in the assay with K-562 leukemia was 5.19 µM; in the assay with 786-0 renal, 41.3 µM; in the assay with UACC-62 melanoma it was 26.8 µM; with IGROV1 ovarian, 24.6 µM; with RPMI-8226 leukemia, 53.7 µM; in the assay with LOX IMVI melanoma, 44.2 µM. The GI50 is 3.92 µM in the assay on NCI-H522 lung, 19.8 µM in the assay with HCT-116 colon and 16 µM with HOP-62 NSCLC. Moreover, the TGI in the assay with K-562 leukemia, in the assay on 786-0 renal, with UACC-62 melanoma, in the assay on IGROV1 ovarian, in the assay on RPMI-8226 leukemia and in the assay with LOX IMVI melanoma was above 100 µM each time. Further, the TGI in the assay on NCI-H522 lung, in the assay on HCT-116 colon and in the assay with HOP-62 NSCLC was above 100 µM throughout.

On to `CN1C(=O)CC2(C)c3cc(C=O)ccc3N(C)C12` (configuration not stated), for which the TGI in the assay on K-562 leukemia, in the assay with 786-0 renal, in the assay on UACC-62 melanoma, in the assay with IGROV1 ovarian, in the assay with LOX IMVI melanoma and with NCI-H522 lung was above 100 µM each time. Also, the TGI in the assay on HCT-116 colon and in the assay on HOP-62 NSCLC was above 100 µM each time.

On to `CCC1(Cl)C(=O)NC(=O)N(C2CC(O)C(CO)O2)C1N=[N+]=[N-]` (configuration not stated), for which the TGI in the assay on K-562 leukemia, in the assay with 786-0 renal, in the assay on UACC-62 melanoma, in the assay with IGROV1 ovarian, in the assay on RPMI-8226 leukemia and in the assay with LOX IMVI melanoma was above 100 µM each time. Further, the TGI with NCI-H522 lung and in the assay on HOP-62 NSCLC was above 100 µM throughout.
